{"source": "BindingDB's records for doi:10.1021/jm00055a005", "about": "(Scios Nova, 1993)", "key": {"[1]": {"molecular_target": "Sigma receptor (Cavia porcellus)", "assay": "Binding affinity against sigma sites in guinea pig membrane using [3H]DTG as the radioligand"}, "[2]": {"molecular_target": "Sigma non-opioid intracellular receptor 1 (Cavia porcellus)", "assay": "Binding affinity against sigma sites in guinea pig membrane using [3H](+)-3-PPP as the radioligand"}}, "data": [{"smiles": "Clc1ccc(OCCN2C3CCC2c2c([nH]c4ccccc24)C3)cc1", "note": "(configuration not stated) [1-(4-chlorophenoxy)-2-[9,15-diazatetracyclo[10.2.1.02,10.03,8]pentadeca-2(10),3,5,7-tetraen-15-yl]ethane]", "values": [{"measurement": "IC50", "setting": "[1]", "result": 251, "unit": "nM"}, {"measurement": "IC50", "setting": "[2]", "result": 4880, "unit": "nM"}]}, {"smiles": "c1ccc(OCCN2C3CCC2c2c([nH]c4ccccc24)C3)cc1", "note": "(configuration not stated) [1-[9,15-diazatetracyclo[10.2.1.02,10.03,8]pentadeca-2(10),3,5,7-tetraen-15-yl]-2-phenoxyethane]", "values": [{"measurement": "IC50", "setting": "[1]", "result": 110, "unit": "nM"}, {"measurement": "IC50", "setting": "[2]", "result": 534, "unit": "nM"}]}, {"smiles": "c1ccc(OCCCN2C3CCC2c2c([nH]c4ccccc24)C3)cc1", "note": "(configuration not stated) [1-[9,15-diazatetracyclo[10.2.1.02,10.03,8]pentadeca-2(10),3,5,7-tetraen-15-yl]-3-phenoxypropane]", "values": [{"measurement": "IC50", "setting": "[1]", "result": 132, "unit": "nM"}, {"measurement": "IC50", "setting": "[2]", "result": 262, "unit": "nM"}]}, {"smiles": "c1csc(CCCCN2C3CCC2c2c([nH]c4ccccc24)C3)c1", "note": "(configuration not stated) [1-[9,15-diazatetracyclo[10.2.1.02,10.03,8]pentadeca-2(10),3,5,7-tetraen-15-yl]-4-(2-thienyl)butane]", "values": [{"measurement": "IC50", "setting": "[1]", "result": 21, "unit": "nM"}, {"measurement": "IC50", "setting": "[2]", "result": 98, "unit": "nM"}]}, {"smiles": "c1ccc(OCCCCN2C3CCC2c2c([nH]c4ccccc24)C3)cc1", "note": "(configuration not stated) [1-[9,15-diazatetracyclo[10.2.1.02,10.03,8]pentadeca-2(10),3,5,7-tetraen-15-yl]-4-phenoxybutane]", "values": [{"measurement": "IC50", "setting": "[1]", "result": 88, "unit": "nM"}, {"measurement": "IC50", "setting": "[2]", "result": 205, "unit": "nM"}]}, {"smiles": "c1ccc(CCCCCN2C3CCC2c2c([nH]c4ccccc24)C3)cc1", "note": "(configuration not stated) [1-[9,15-diazatetracyclo[10.2.1.02,10.03,8]pentadeca-2(10),3,5,7-tetraen-15-yl]-5-phenylpentane]", "values": [{"measurement": "IC50", "setting": "[1]", "result": 107, "unit": "nM"}, {"measurement": "IC50", "setting": "[2]", "result": 348, "unit": "nM"}]}, {"smiles": "c1ccc(CCCCN2C3CCC2c2c(n(Cc4ccccc4)c4ccccc24)C3)cc1", "note": "(configuration not stated) [1-[9-benzyl-9,15-diazatetracyclo[10.2.1.02,10.03,8]pentadeca-2(10),3,5,7-tetraen-15-yl]-4-phenylbutane]", "values": [{"measurement": "IC50", "setting": "[1]", "result": 267, "unit": "nM"}, {"measurement": "IC50", "setting": "[2]", "result": 396, "unit": "nM"}]}, {"smiles": "CC(C)n1c2c(c3ccccc31)C1CCC(C2)N1CCCCc1ccccc1", "note": "(configuration not stated) [1-[9-isopropyl-9,15-diazatetracyclo[10.2.1.02,10.03,8]pentadeca-2(10),3,5,7-tetraen-15-yl]-4-phenylbutane]", "values": [{"measurement": "IC50", "setting": "[1]", "result": 231, "unit": "nM"}, {"measurement": "IC50", "setting": "[2]", "result": 705, "unit": "nM"}]}, {"smiles": "O=C1c2ccccc2C(=O)N1CCCN1C2CCC1c1c([nH]c3ccc(F)cc13)C2", "note": "(configuration not stated) [2-{3-[5-fluoro-9,15-diazatetracyclo[10.2.1.02,10.03,8]pentadeca-2(10),3,5,7-tetraen-15-yl]propyl}-1,3-isoindolinedione]", "values": [{"measurement": "IC50", "setting": "[1]", "result": 836, "unit": "nM"}, {"measurement": "IC50", "setting": "[2]", "result": 3330, "unit": "nM"}]}, {"smiles": "OCCCN1C2CCC1c1c([nH]c3ccc(F)cc13)C2", "note": "(configuration not stated) [3-[5-fluoro-9,15-diazatetracyclo[10.2.1.02,10.03,8]pentadeca-2(10),3,5,7-tetraen-15-yl]-1-propanol]", "values": [{"measurement": "IC50", "setting": "[1]", "result": 317, "unit": "nM"}, {"measurement": "IC50", "setting": "[2]", "result": 1380, "unit": "nM"}]}, {"smiles": "Fc1ccc2[nH]c3c(c2c1)C1CCC(C3)N1Cc1ccccc1", "note": "(configuration not stated) [15-benzyl-5-fluoro-9,15-diazatetracyclo[10.2.1.02,10.03,8]pentadeca-2(10),3,5,7-tetraene]", "values": [{"measurement": "IC50", "setting": "[1]", "result": 86, "unit": "nM"}, {"measurement": "IC50", "setting": "[2]", "result": 908, "unit": "nM"}]}]}
